{
  "source": "patent US8623661B2",
  "about": "“Iron chelating agent, method for producing same, method for determining amount of iron ions and method for trapping iron ions” (National University Corporation Asahikawa Medical College, priority 2008, dated 2014)",
  "test_system": "iron nitrilotriacetate complex (Fe-NTA)",
  "assay": "Evaluation C: chelating ability in MOPS/acetonitrile solvent, Fe-NTA solution",
  "format": "binding",
  "protocol": "Evaluation was carried out by the following evaluation method C as to whether or not the iron chelating agent according to Examples 1 to 3 had chelating ability with iron in 3-morpholinopropanesulfonic acid (C7H15NO4S;MOPS) and acetonitrile solution as solvents used in high performance liquid chromatography (HPLC).\n2.09 g of morpholinopropanesulfonic acid (C7H15NO4S; FW=209.26, Code 341-01801, Lot PX013, manufactured by Dojindo/Wako Corporation) was added to a 100 mL Erlenmeyer flask, 80 mL of ultrapure water (pure water produced by an ultrapure water production system manufactured by Millipore Corporation (Milli-Q); “Milli-Q water”) was added thereto and dissolved [pH 4.15 (24.4° C.)]. To this solution, 1N sodium hydroxide solution (1 mol/1 sodium hydroxide solution, Code 192-02175, Lot SEP7274, manufactured by Wako Pure Chemicals Industries) was added in 100 μl portions, the pH was adjusted to 7.0 and further Milli-Q water was made up to 100 mL in a measuring cylinder, whereby 100 mL of MOPS solution (pH 6.99) was prepared.\nAn iron chelating agent solution having an iron chelating agent concentration of 50 mM was prepared with respect to the iron chelating agent according to Examples 1 to 3, in the same manner as the preparation method of the iron chelating solution in evaluation A of the iron chelating agent.\nFurther, 100 mM of MOPS solution (pH6.99) prepared by the preparation method of the MOPS solution was used.\nFurthermore, a stock solution of acetonitrile (C2H3N, FW=41.05, Code 347-06641, Lot WPI96, manufactured by Dojindo/Wako corporation) was used.\n13.8 mL of Milli-Q water was taken in a 50 mL conical tube, 1.2 mL of each of the iron chelating agent solutions (Fe-Ser•Na (50 mM), Fe-His•Na (50 mM), Fe-Glu•Na (50 mM)) according to the iron chelating agents of Examples 1 to 3 was added, 1.0 mL of 100 mM MOPS solution was added thereto, and a further 4.0 mL of acetonitrile solution was added to produce an iron chelating solution using MOPS. The iron chelating agent solutions using MOPS and iron chelating agent according to Examples 1 to 3 were defined respectively as Fe-Ser•Na (MOPS solution)” (iron chelating agent according to\nExample 1), “Fe-His•Na (MOPS solution)” (iron chelating agent according to Example 2), and “Fe-Glu•Na(MOPS solution)” (iron chelating agent according to Example 3).\nFurther, iron nitrilotriacetate complex solution (“Fe-NTA solution (20 mM)”) having a concentration of iron ions of 20 mM and iron nitrilotriacetate complex solution (“Fe-NTA solution (2 mM)”) having a concentration of iron ions of 2 mM were prepared, in the same manner as the preparation method of iron nitrilotriacetate complex solution in evaluation B of the iron chelating agent.\nFurther, Fe-NTA solution (20 mM) was added to and mixed with each of the iron chelating agent solutions [Fe-Ser•Na (MOPS solution), Fe-His•Na (MOPS solution), Fe-Glu•Na (MOPS solution)] using MOPS. […] Further, Fe-NTA solution (2 mM) was added and mixed thereto as described above.",
  "data": [
    {"compound": "O=C(O)C(CO)NCc1ccccc1O", "note": "(centres unmarked) [Example 1, o-[(1-carboxy-2-hydroxyethyl)-amino-methyl]-phenol]", "values": [
      {"measurement": "colour of the solution after mixing", "setting": "Fe-NTA solution (2 mM) added to chelating agent MOPS solution (MOPS, acetonitrile)", "value": "dark brown-colored"},
      {"measurement": "colour of the solution after mixing", "setting": "Fe-NTA solution (20 mM) added to chelating agent MOPS solution (MOPS, acetonitrile)", "value": "dark brown-colored"}
    ]}
  ]
}
